Measurements as given in PubChem BioAssay (NCI).
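Test compounds were applied to cells in 96-well plates for 48 hours at 5 doses. Here, GI50 denotes the concentration required for 50% inhibition of growth. At the TGI there is no net growth.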

Key:
Experiment in all cases: inhibition of tumour cell growth, NCI panel, 48 h
[1] = system: NCI-H460 lung
[2] = system: LXFL 529 NSCLC
[3] = system: M14 melanoma
[4] = system: K-562 leukemia
[5] = system: HT29 colon
[6] = system: UACC-257 melanoma
[7] = system: SF-268 CNS
[8] = system: A498 renal
[9] = system: HCC-2998 colon
[10] = system: SK-MEL-28 melanoma
[11] = system: HOP-62 NSCLC
[12] = system: DMS 114 small cell lung
[13] = system: SN12C renal
[14] = system: SK-MEL-2 melanoma
[15] = system: COLO 205 colon
[16] = system: CCRF-CEM leukemia
[17] = system: SR leukemia
[18] = system: SK-MEL-5 melanoma
[19] = system: RXF 393 renal
[20] = system: LOX IMVI melanoma
[21] = system: MOLT-4 leukemia
[22] = system: OVCAR-8 ovarian
[23] = system: HCT-116 colon
[24] = system: HCT-15 colon
[25] = system: SNB-78 CNS
[26] = system: SF-295 CNS
[27] = system: OVCAR-4 ovarian
[28] = system: SNB-19 CNS
[29] = system: OVCAR-5 ovarian
[30] = system: NCI-H522 lung
[31] = system: U251 CNS
[32] = system: A549 NSCLC
[33] = system: MALME-3M melanoma
[34] = system: RPMI-8226 leukemia
[35] = system: SF-539 CNS
[36] = system: NCI-H23 lung
[37] = system: CAKI-1 renal
[38] = system: HOP-92 NSCLC
[39] = system: 786-0 renal
[40] = system: SW-620 colon
[41] = system: OVCAR-3 ovarian
[42] = system: KM12 colon
[43] = system: NCI-H226 lung
[44] = system: IGROV1 ovarian
[45] = system: UACC-62 melanoma
[46] = system: SK-OV-3 ovarian
[47] = system: UO-31 renal
[48] = system: EKVX NSCLC
[49] = system: ACHN renal
[50] = system: M19-MEL melanoma
[51] = system: HOP-18 NSCLC
[52] = system: KM20L2 colon
[53] = system: HL-60(TB) leukemia
[54] = system: TK-10 renal
[55] = system: SNB-75 CNS
[56] = system: DLD-1 colon

O=C(Nc1cccc([N+](=O)[O-])c1)/C(=N\NC(=O)c1ccncc1)c1nc2ccc([N+](=O)[O-])cc2[nH]c1=O
TGI [1]: > 100 µM
TGI [2]: > 100 µM
TGI [3]: > 100 µM
TGI [4]: > 100 µM
TGI [5]: > 100 µM
TGI [6]: > 100 µM
TGI [7]: > 100 µM
TGI [8]: > 100 µM
TGI [9]: 93.8 µM
TGI [10]: > 100 µM
TGI [11]: > 100 µM
TGI [12]: > 100 µM
TGI [13]: > 100 µM
TGI [14]: > 100 µM
TGI [15]: > 100 µM
TGI [16]: > 100 µM
TGI [17]: > 100 µM
TGI [18]: > 100 µM
TGI [19]: > 100 µM
TGI [20]: > 100 µM
TGI [21]: > 100 µM
TGI [22]: > 100 µM
TGI [23]: > 100 µM
TGI [24]: > 100 µM
TGI [25]: > 100 µM
TGI [26]: > 100 µM
TGI [27]: > 100 µM
TGI [28]: > 100 µM
TGI [29]: > 100 µM
TGI [30]: > 100 µM
TGI [31]: > 100 µM
TGI [32]: > 100 µM
TGI [33]: > 100 µM
TGI [34]: > 100 µM
TGI [35]: > 100 µM
TGI [36]: > 100 µM
TGI [37]: > 100 µM
TGI [38]: > 100 µM
TGI [39]: > 100 µM
TGI [40]: > 100 µM
TGI [41]: > 100 µM
TGI [42]: > 100 µM
TGI [43]: > 100 µM
TGI [44]: > 100 µM
TGI [45]: > 100 µM
TGI [46]: > 100 µM
TGI [47]: > 100 µM
TGI [48]: > 100 µM
TGI [49]: > 100 µM

CC[N-]c1nnnn1CC.[Au+].c1ccc([PH+](c2ccccc2)c2ccccc2)cc1
GI50 [1]: 3.71 µM
TGI [1]: > 20.7 µM
GI50 [2]: 0.723 µM
TGI [2]: 2.04 µM
GI50 [3]: 1.29 µM
TGI [3]: 2.79 µM
GI50 [4]: 0.342 µM
TGI [4]: 1.91 µM
GI50 [6]: 1.27 µM
TGI [6]: 2.72 µM
GI50 [9]: 1.68 µM
TGI [9]: 3.15 µM
GI50 [10]: 0.677 µM
TGI [10]: 2.16 µM
GI50 [11]: 2.07 µM
TGI [11]: 3.72 µM
GI50 [13]: 1.65 µM
TGI [13]: 3.26 µM
GI50 [14]: 1.14 µM
TGI [14]: 2.39 µM
GI50 [15]: 2.19 µM
TGI [15]: 5.4 µM
TGI [50]: 4.24 µM
GI50 [18]: 0.811 µM
TGI [18]: 2.22 µM
GI50 [19]: 0.242 µM
TGI [19]: 0.801 µM
GI50 [20]: 1.45 µM
TGI [20]: 2.93 µM
GI50 [21]: 0.716 µM
TGI [21]: 3.74 µM
GI50 [22]: 1.57 µM
TGI [22]: 3.07 µM
GI50 [23]: 1.55 µM
TGI [23]: 2.9 µM
GI50 [25]: 2.5 µM
TGI [25]: > 100 µM
GI50 [26]: 3.09 µM
TGI [26]: 10 µM
GI50 [28]: 1.44 µM
TGI [28]: 2.76 µM
GI50 [29]: 4.5 µM
TGI [29]: 9.16 µM
GI50 [51]: 1.82 µM
TGI [51]: 3.23 µM
GI50 [31]: 1.96 µM
TGI [31]: 6.48 µM
GI50 [32]: 4.93 µM
TGI [32]: > 53.5 µM
GI50 [33]: 1.24 µM
TGI [33]: 2.55 µM
GI50 [52]: 2 µM
TGI [52]: 12.9 µM
GI50 [34]: 0.568 µM
TGI [34]: 4.48 µM
GI50 [35]: 2.1 µM
TGI [35]: 5.79 µM
GI50 [36]: 1.39 µM
TGI [36]: 3.01 µM
GI50 [39]: 1.37 µM
TGI [39]: 2.67 µM
GI50 [53]: 0.187 µM
TGI [53]: 0.68 µM
GI50 [41]: 1.76 µM
TGI [41]: 3.15 µM
GI50 [42]: 2.93 µM
TGI [42]: 11.6 µM
GI50 [43]: 1.44 µM
TGI [43]: 3.2 µM
GI50 [54]: 1.66 µM
TGI [54]: 3.07 µM
GI50 [44]: 2.26 µM
TGI [44]: 5.96 µM
GI50 [45]: 1.2 µM
TGI [45]: 3.18 µM
GI50 [46]: 4.95 µM
TGI [46]: 9.98 µM
GI50 [47]: 1.66 µM
TGI [47]: 3.14 µM
GI50 [55]: 1.35 µM
TGI [55]: 3.46 µM
GI50 [48]: 1.7 µM
TGI [48]: 4.04 µM
GI50 [49]: 1.62 µM
TGI [49]: 3.02 µM

CC1(CO)OC(n2cnc3c(N)ncnc32)C(O)C1O (stereo not given)
TGI [1]: > 100 µM
TGI [2]: > 100 µM
TGI [3]: > 100 µM
TGI [4]: > 100 µM
TGI [5]: > 100 µM
TGI [7]: > 100 µM
TGI [8]: > 100 µM
TGI [9]: > 100 µM
TGI [10]: > 100 µM
TGI [11]: > 100 µM
TGI [12]: > 100 µM
TGI [13]: > 100 µM
TGI [14]: > 100 µM
TGI [15]: > 100 µM
TGI [50]: > 100 µM
TGI [16]: > 100 µM
TGI [17]: > 100 µM
TGI [18]: > 100 µM
TGI [19]: > 100 µM
TGI [20]: > 100 µM
TGI [21]: > 100 µM
TGI [22]: > 100 µM
TGI [23]: > 100 µM
TGI [24]: > 100 µM
TGI [26]: > 100 µM
TGI [27]: > 100 µM
TGI [28]: > 100 µM
TGI [29]: > 100 µM
TGI [51]: > 100 µM
TGI [30]: > 100 µM
TGI [31]: > 100 µM
TGI [32]: > 100 µM
TGI [33]: > 100 µM
TGI [34]: > 100 µM
TGI [35]: > 100 µM
TGI [36]: > 100 µM
TGI [56]: > 100 µM
TGI [37]: > 100 µM
TGI [38]: > 100 µM
TGI [39]: > 100 µM
TGI [40]: > 100 µM
TGI [53]: > 100 µM
TGI [41]: > 100 µM
TGI [42]: > 100 µM
TGI [54]: > 100 µM
TGI [44]: > 100 µM
TGI [45]: > 100 µM
TGI [46]: > 100 µM
TGI [47]: > 100 µM
TGI [55]: > 100 µM
TGI [49]: > 100 µM
